According to the supplement of paper PMC11061612:

What was measured:
[1] = tested on: SW13 (Other Solid Carcinomas); assay: combination Emax (second highest fraction inhibited in the dose matrix, 72 h); higher = more inhibition; extreme values may be limits of the assay
In short: (§1)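 After 24 hours at 37°C and 5% CO2 in 1536-well plates, cells in DMEM/F12 or RPMI plus 10% FBS received two-drug dose matrices for 72 hours. Viability came from CellTiter-Glo 2.0 luminescence and was scaled as inhibition, anchored at 0 by vehicle wells and at 1 by blank wells. Combination Emax is taken as the second-highest inhibition in the matrix, and Bliss excess as the observed combination effect less EA + EB − EA·EB, with EA and EB the single-agent effects.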

[2] = tested on: NEC8 (Other Solid Carcinomas); assay: Bliss excess, mean over the matrix (fraction); higher = more synergy
In short: as §1

[3] = tested on: Ca9-22 (Head and Neck Carcinoma); assay: as above
In short: as §1

[4] = tested on: HOP-62 (Lung Adenocarcinoma); assay: as above
In short: as §1

[5] = tested on: TE-1 (Esophageal Squamous Cell Carcinoma); assay: as above
In short: as §1

[6] = tested on: Caov-4 (Ovarian Carcinoma); assay: as above
In short: as §1

TK10 (Kidney Carcinoma) = assay: as above
In short: as §1

[7] = tested on: NUGC-3 (Gastric Carcinoma); assay: as above
In short: as §1

[8] = tested on: PANC-04-03 (Pancreatic Carcinoma); assay: as above
In short: as §1

YH-13 (Glioblastoma) = assay: as above
In short: as §1

[9] = tested on: EoL-1-cell (Acute Myeloid Leukemia); assay: as above
In short: as §1

[10] = tested on: VA-ES-BJ (Other Solid Carcinomas); assay: as above
In short: as §1

[11] = tested on: NCI-H358 (Lung Adenocarcinoma); assay: as above
In short: as §1

[12] = tested on: SU8686 (Pancreatic Carcinoma); assay: as above
In short: as §1

ACHN (Kidney Carcinoma) = assay: as above
In short: as §1

[13] = tested on: KMOE-2 (Acute Myeloid Leukemia); assay: as above
In short: as §1

[14] = tested on: HGC-27 (Gastric Carcinoma); assay: as above
In short: as §1

PWR-1E (Non-Cancerous) = assay: as above
In short: as §1

NB69 (Neuroblastoma) = assay: as above
In short: as §1

[15] = tested on: MIA-PaCa-2 (Pancreatic Carcinoma); assay: as above
In short: as §1
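Wherever Bliss excess, mean over the matrix is given: after 72 h of two-drug dosing.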

Row | Structure (SMILES) | combination Emax [1] | Bliss excess [2] | Bliss excess [3] | Bliss excess [4] | Bliss excess [5] | Bliss excess [6] | Bliss excess (TK10 (Kidney Carcinoma)) | Bliss excess [7] | Bliss excess [8] | Bliss excess (YH-13 (Glioblastoma)) | Bliss excess [9] | Bliss excess [10] | Bliss excess [11] | Bliss excess [12] | Bliss excess (ACHN (Kidney Carcinoma)) | Bliss excess [13] | Bliss excess [14] | Bliss excess (PWR-1E (Non-Cancerous)) | Bliss excess (NB69 (Neuroblastoma)) | Bliss excess [15]
1 | CCN(CCO)CCCOc1ccc2c(Nc3cc(CC(=O)Nc4cccc(F)c4)[nH]n3)ncnc2c1 [AZD2811] + C=CCn1c(=O)c2cnc(Nc3ccc(N4CCN(C)CC4)cc3)nc2n1-c1cccc(C(C)(C)O)n1 [AZD1775] (first compound max 1 µM, partner max 1 µM) | 0.463 | 0.0471 | 0.027 | -0.0287 | 0.019 | -0.0258 | -0.0707 | 0.0104 | -0.0441 | -0.003 | -0.0033 | 0.0263 | -0.0312 | -0.0166 | 0.0555 | -0.0181 | -0.0176 | 0.118 | -0.0383 | 0.0756
2 | CCN(CCO)CCCOc1ccc2c(Nc3cc(CC(=O)Nc4cccc(F)c4)[nH]n3)ncnc2c1 [AZD2811] + C[C@@H]1COCCN1C2=NC(=NC(=C2)C3(CC3)[S@](=N)(=O)C)C4=C5C=CNC5=NC=C4 [AZD6738] (first compound max 1 µM, 7x7, partner max 10 µM) | 0.537 | 0.0487 | 0.0323 | -0.0313 | -0.0042 | -0.0065 | -0.0811 | 0.004 | -0.0563 | -0.0931 | -0.0354 | -0.0217 | 0.0096 | -0.034 | -0.0369 | -0.032 | -0.0885 | -0.0472 | -0.0806 | -0.0797
3 | CCN(CCO)CCCOc1ccc2c(Nc3cc(CC(=O)Nc4cccc(F)c4)[nH]n3)ncnc2c1 [AZD2811] + O=C(c1cc(Cc2n[nH]c(=O)c3ccccc23)ccc1F)N1CCN(C(=O)C2CC2)CC1 [Olaparib] (first compound max 1 µM, 7x7, partner max 10 µM) | 0.364 | 0.0116 | 0.0109 | -0.0376 | -0.031 | 0.0034 | -0.0391 | 0.0181 | -0.0177 | 0.0304 | -0.03 | 0.0206 | -0.063 | -0.0075 | 0.0023 | 0.0545 | -0.0122 | 0.0243 | -0.0517 | 0.0461
4 | CN(CCO)CC[C@H](CSc1ccccc1)Nc1ccc(S(=O)(=O)NC(=O)c2ccc(N3CCC([C@@H](O)c4ccccc4-c4ccc(Cl)cc4)CC3)cc2)cc1S(=O)(=O)C(F)(F)F [AZD4320] + CN(C)CCCOc1ccc(-c2ccc3ncc4c(c3c2)n(C2CCOCC2)c(=O)n4C)cn1 [AZD0156] (first compound max 1 µM, 7x7, partner max 1 µM) | 0.14 | -0.0167 | -0.0338 | -0.0619 | -0.033 | -0.0319 | -0.0373 | -0.0477 | -0.0652 | -0.0489 | 0.024 | -0.0379 | -0.0101 | -0.0404 | -0.0045 | 0.0446 | -0.064 | -0.0208 | -0.12 | -0.0626
5 | COc1nnc2ccc(N3CCC(c4ccc(OCCN5CCN(C)C(=O)[C@H]5C)cc4)CC3)nn12 [AZD5153] + C=CCn1c(=O)c2cnc(Nc3ccc(N4CCN(C)CC4)cc3)nc2n1-c1cccc(C(C)(C)O)n1 [AZD1775] (first compound max 1 µM, partner max 1 µM) | 0.561 | -0.0352 | -0.0453 | -0.0674 | -0.0357 | -0.0316 | -0.0831 | -0.0249 | -0.106 | -0.0451 | -0.011 | 0.0076 | -0.113 | -0.0147 | -0.0396 | 0.0656 | -0.0229 | -0.127 | -0.0206 | -0.0019
6 | COc1nnc2ccc(N3CCC(c4ccc(OCCN5CCN(C)C(=O)[C@H]5C)cc4)CC3)nn12 [AZD5153] + CC1(C)CCC(CN2CCN(c3ccc(C(=O)NS(=O)(=O)c4ccc(NCC5CCOCC5)c([N+](=O)[O-])c4)c(Oc4cnc5[nH]ccc5c4)c3)CC2)=C(c2ccc(Cl)cc2)C1 [Venetoclax] (first compound max 1 µM, 7x7, partner max 1 µM) | 0.384 | -0.0661 | -0.0321 | -0.0716 | -0.0383 | 0.0179 | -0.0549 | -0.0746 | -0.0341 | -0.0441 | -0.0183 | -0.0486 | -0.049 | -0.0501 | -0.0499 | -0.0718 | -0.0808 | -0.0826 | 0.0488 | -0.0739
7 | COc1nnc2ccc(N3CCC(c4ccc(OCCN5CCN(C)C(=O)[C@H]5C)cc4)CC3)nn12 [AZD5153] + CCN(CCO)CCCOc1ccc2c(Nc3cc(CC(=O)Nc4cccc(F)c4)[nH]n3)ncnc2c1 [AZD2811] (first compound max 1 µM, 7x7, partner max 1 µM) | 0.455 | -0.0072 | -0.023 | -0.0853 | 0.0103 | -0.0403 | -0.0717 | -0.0372 | -0.0667 | -0.0409 | 0.003 | -0.0342 | -0.0479 | -0.0309 | 0.0017 | -0.0176 | -0.102 | -0.0096 | -0.0087 | 0.0109
8 | COc1nnc2ccc(N3CCC(c4ccc(OCCN5CCN(C)C(=O)[C@H]5C)cc4)CC3)nn12 [AZD5153] + C[C@@H]1COCCN1C2=NC(=NC(=C2)C3(CC3)[S@](=N)(=O)C)C4=C5C=CNC5=NC=C4 [AZD6738] (first compound max 1 µM, 7x7, partner max 10 µM) | 0.718 | 0.0124 | -0.0481 | -0.0276 | 0.019 | 0.097 | -0.0406 | 0.0398 | -0.008 | -0.0157 | -0.0066 | 0.0315 | -0.0855 | -0.0329 | 0.0379 | 0.0743 | -0.0376 | 0.0015 | 0.008 | 0.0077
9 | COc1nnc2ccc(N3CCC(c4ccc(OCCN5CCN(C)C(=O)[C@H]5C)cc4)CC3)nn12 [AZD5153] + Cc1c2c(nn1C)CSCc1cc(n(C)n1)CSc1cc(c3ccccc3c1)OCCCc1c(C(=O)O)n(C)c3c-2c(Cl)ccc13 [AZD5991] (first compound max 1 µM, 7x7, partner max 1 µM) | 0.969 | 0.0672 | 0.0049 | -0.0482 | -0.0166 | 0.0265 | -0.0459 | -0.0233 | -0.0038 | -0.0069 | -0.0073 | -0.0174 | -0.059 | -0.0221 | -0.0565 | -0.0322 | -0.0471 | 0.0557 | -0.0334 | 0.0438
10 | COc1nnc2ccc(N3CCC(c4ccc(OCCN5CCN(C)C(=O)[C@H]5C)cc4)CC3)nn12 [AZD5153] + Cn1cnc2c(F)c(Nc3ccc(Br)cc3Cl)c(C(=O)NOCCO)cc21 [Selumetinib] (first compound max 1 µM, 7x7, partner max 10 µM) | 0.593 | 0.0165 | 0.0592 | -0.0724 | 0.0111 | -0.053 | 0.0204 | -0.0071 | -0.0358 | -0.0356 | 0.0345 | -0.0155 | -0.0409 | -0.0166 | 0.0033 | 0.0402 | -0.083 | -0.0044 | 0.0191 | -0.0371
11 | Cc1c2c(nn1C)CSCc1cc(n(C)n1)CSc1cc(c3ccccc3c1)OCCCc1c(C(=O)O)n(C)c3c-2c(Cl)ccc13 [AZD5991] + C1CN(CCC1(C(=O)N[C@@H](CCO)C2=CC=C(C=C2)Cl)N)C3=NC=NC4=C3C=CN4 [Capivasertib] (first compound max 1 µM, 7x7, partner max 3 µM) | 0.967 | 0.0812 | -0.0261 | -0.0422 | -0.0107 | 0.0354 | -0.031 | -0.0051 | -0.0094 | -0.0229 | 0.0528 | -0.0109 | -0.0179 | -0.0177 | 0.0107 | -0.002 | 0.0232 | -0.0077 | -0.0071 | 0.0125
12 | Cc1c2c(nn1C)CSCc1cc(n(C)n1)CSc1cc(c3ccccc3c1)OCCCc1c(C(=O)O)n(C)c3c-2c(Cl)ccc13 [AZD5991] + C[C@@H]1COCCN1C2=NC(=NC(=C2)C3(CC3)[S@](=N)(=O)C)C4=C5C=CNC5=NC=C4 [AZD6738] (first compound max 1 µM, 7x7, partner max 10 µM) | 0.854 | 0.1 | 0.0573 | 0.0213 | 0.0125 | -0.0205 | -0.0599 | 0.0119 | 0.0027 | 0.0218 | 0.0036 | 0.0023 | -0.0334 | -0.008 | -0.0008 | 0.0168 | 0.0562 | 0.005 | 0.0301 | 0.0652
